Starred links: 1 amine or outer side, 2 acyl side, 3 side chain; linkers in the order of their positions; H or OH if unused. Positions of bridges follow the written chain, without caps; N, C: chain ends. Non-standard residues stand in square brackets, D forms with d. Residues, ends and D or L forms follow the SMILES beside them. Cha = N[C@@H](CC1CCCCC1)C(=O)O; Chg = N[C@H](C(=O)O)C1CCCCC1; Phg = N[C@H](C(=O)O)c1ccccc1; Suc = O=C(CCC(=O)[*:2])[*:1]; hLeu = CC(C)CC[C@H](N)C(=O)O; Nle = CCCC[C@H](N)C(=O)O; NcPrGly = O=C(O)CNC1CC1; Nva = CCC[C@H](N)C(=O)O; Dap = NC[C@H](N)C(=O)O; Sar = CNCC(=O)O

This is an account of results in patent US9957298B2, “Peptides as oxytocin agonists” (Hoffmann-La Roche Inc., priority 2014, dated 2018).

Assay type in all cases: cell-based
Experiment [1] concerns the target T1, human Oxytocin (OTR) receptor (Homo sapiens, UniProt P30559).
T1 construct: expressed in transfected cells
T1 sequence (P30559 1-389): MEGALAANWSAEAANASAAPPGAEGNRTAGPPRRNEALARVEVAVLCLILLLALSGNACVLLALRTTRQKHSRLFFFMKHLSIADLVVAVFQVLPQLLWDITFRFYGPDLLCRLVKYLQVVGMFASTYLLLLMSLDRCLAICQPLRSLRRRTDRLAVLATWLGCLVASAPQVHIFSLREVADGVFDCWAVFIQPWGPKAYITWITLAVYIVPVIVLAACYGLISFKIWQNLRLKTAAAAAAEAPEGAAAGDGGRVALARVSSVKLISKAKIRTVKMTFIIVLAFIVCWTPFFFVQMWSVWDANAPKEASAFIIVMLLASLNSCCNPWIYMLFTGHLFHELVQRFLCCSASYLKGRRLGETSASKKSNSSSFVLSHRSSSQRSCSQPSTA
Nature of the experiment: Calcium flux assay (FLIPR), agonist mode, CHO cells expressing human oxytocin receptor. To be noted: for EC50: CHO cells, human OTR, calcium flux FLIPR, read-out: hOT EC50; for hOT efficacy (%) / Emax: maximum response normalized to endogenous full agonist = 100%; for Emax: CHO, read-out: hOT efficacy (%). The text has this: (§1) Chines Hamster Ovary (CHO) cells were transfected with expression plasmids encoding either the human V1a, the human Oxytocin (OTR) or the human V2 receptor, the later in combination with the chimeric Gqs5 G protein to redirect the signal to Calcium flux. Stable cells were cloned by limiting dilution to yield monoclonal cell lines expressing either human V1a, human V2+Gqs5 or human OTR receptors and selected based on functional responses detected on a fluorometric imaging plate reader (FLIPR) detecting Calcium flux in the cell after receptor activation. The stable cell lines were grown in F-12 K Nutrient Mixture (Kaighns Modification), containing 10% foetal bovine serum (FBS), 1% penicillin-streptomycin, 1% L-[…], 200 ug/ml Geneticin at 37° C. in a 10% CO2 incubator at 95% humidity.
(§2) On the afternoon before the assay, cells were plated at a density of 50,000 cells/well into black 96 well plates with clear bottoms to allow cell inspection and fluorescence measurements from the bottom of each well. The density of cells was sufficient to yield a confluent monolayer the next day. Hanks balanced salt solution, without phenol red, containing 20 mM HEPES (pH 7.3) and 2.5 mM probenecid (assay buffer) was prepared fresh for each experiment. Compound dilutions were made using a Beckman Biomek 2000 laboratory automation workstation, in assay buffer containing 1% DMSO. The dye-loading buffer consisted of a final concentration of 2 μM Fluo-4-AM (dissolved in DMSO and pluronic acid) in assay buffer. The existing culture media was removed from the wells and 100 μl of the dye-loading buffer was added to each well and incubated for approximately 60 min at 37° C. in a 5% CO2 incubator at 95% humidity. Once dye-loaded, the cells were washed thoroughly on an Embla cell washer with the assay buffer to remove any unincorporated dye. Exactly 100 μl assay buffer was left in each well.
(§3) Each 96 well plate containing dye-loaded cells was placed into the FLIPR machine and the laser intensity set to a suitable level to detect low basal fluorescence. To test compounds as agonists, 25 μl diluted compound was added to the plate 10 seconds into the fluorescent measurements and fluorescent response was recorded for 5 minutes. The fluorescence data was normalized to the endogenous full agonist dose-response set at 100% for the maximum response and 0% for the minimum. Each agonist concentration-response curve was constructed using a four parameter logistic equation with Microsoft Excel XLFit as follows: Y=Minimum+((Maximum−Minimum)/(1+10^(LogEC50-X)nH)), where y is the % normalized fluorescence, minimum is the minimum y, maximum is the maximum y, logEC50 is the log10 concentration which produces 50% of the maximum induced fluorescence, x is the log10 of the concentration of the agonist compound and H is the slope of the curve (the Hill Coefficient). The maximum value gives the efficacy of the agonist test compound in percentage. The concentration of agonist that produced a half-maximal response is represented by the EC50 value, the logarithm of which yielded the pEC50 value.

For a further experiment, the target named is T2, human V1a receptor (Homo sapiens, UniProt P37288).
T2 construct: expressed in transfected cells
T2 sequence (P37288 whole entry): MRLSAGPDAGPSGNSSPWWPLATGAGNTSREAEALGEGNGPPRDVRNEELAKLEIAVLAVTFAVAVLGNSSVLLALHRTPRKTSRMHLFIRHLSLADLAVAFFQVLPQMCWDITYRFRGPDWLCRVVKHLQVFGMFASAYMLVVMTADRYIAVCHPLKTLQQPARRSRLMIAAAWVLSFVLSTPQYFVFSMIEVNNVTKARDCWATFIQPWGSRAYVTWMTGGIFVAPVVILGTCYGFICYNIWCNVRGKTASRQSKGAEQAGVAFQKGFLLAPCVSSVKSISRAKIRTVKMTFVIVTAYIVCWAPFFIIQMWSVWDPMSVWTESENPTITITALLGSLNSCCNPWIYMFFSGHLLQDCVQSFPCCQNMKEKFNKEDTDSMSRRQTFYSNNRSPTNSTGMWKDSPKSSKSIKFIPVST
Nature of the experiment: Calcium flux assay (FLIPR), agonist mode, CHO cells expressing human V1a receptor. To be noted: read-out: hV1a EC50.
Description: as §1, §2, §3

The target of a further experiment is T3, human V2 receptor (Homo sapiens, UniProt P30518).
T3 construct: expressed in transfected cells
T3 sequence (P30518 whole entry): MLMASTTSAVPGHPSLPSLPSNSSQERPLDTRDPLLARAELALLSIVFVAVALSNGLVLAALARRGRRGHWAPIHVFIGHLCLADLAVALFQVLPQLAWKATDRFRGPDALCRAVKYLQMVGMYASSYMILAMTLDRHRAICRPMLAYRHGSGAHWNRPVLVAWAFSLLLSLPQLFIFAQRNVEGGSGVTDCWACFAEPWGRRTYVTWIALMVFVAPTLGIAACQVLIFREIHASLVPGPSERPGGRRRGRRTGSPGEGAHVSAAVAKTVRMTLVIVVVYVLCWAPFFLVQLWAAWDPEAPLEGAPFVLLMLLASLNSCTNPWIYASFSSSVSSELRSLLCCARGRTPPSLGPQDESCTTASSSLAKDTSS
Nature of the experiment: Calcium flux assay (FLIPR), agonist mode, CHO cells expressing human V2 receptor + Gqs5. To be noted: for EC50: CHO cells, human V2 + chimeric Gqs5, calcium flux FLIPR, read-out: hV2 EC50; for hV2 efficacy (%) / Emax: maximum response normalized to endogenous full agonist = 100%; for Emax: CHO, read-out: hV2 efficacy (%).
Description: as §1, §2, §3
For orientation: Calcium assays in cells follow changes in intracellular calcium, usually with a dye or a luminescent sensor.

A word on the EC50: it is the concentration giving half of the maximal effect. Consider `CCCC[C@H](NC(=O)CN(C)C(=O)[C@@H]1CNC(=O)CCC(=O)N[C@@H](Cc2ccc(O)cc2)C(=O)N[C@@H]([C@@H](C)CC)C(=O)N[C@@H](CCC(N)=O)C(=O)N[C@@H](CC(N)=O)C(=O)N1)C(=O)NCC(N)=O` [Example 6] (YIQN[Dap][Sar][Nle]G-NH2; linker N-5 via Suc), for which the EC50 in experiment [1] was 1 nM; at human V1a receptor it was above 27000 nM; on human V2 receptor it was 364 nM. In addition, the “hOT efficacy (%)” value in experiment [1] worked out at 119%. Further, the “hV2 efficacy (%)” value at human V2 receptor worked out at 104%.

In the case of `CC[C@H](C)[C@@H]1NC(=O)[C@H](Cc2ccc(O)cc2)NC(=O)CCC(=O)NC[C@@H](C(=O)N2CCC[C@H]2C(=O)N[C@H](C(=O)NCC(N)=O)C2CCCCC2)NC(=O)[C@H](CC(N)=O)NC(=O)[C@H](CCC(N)=O)NC1=O` [Example 20] (YIQN[Dap]P[Chg]G-NH2; linker N-5 via Suc), the values for the EC50 (in experiment [1]; at human V1a receptor; on human V2 receptor) were 0.9 nM, 562 nM and 174 nM, respectively. Further, in experiment [1], the Emax stood at 117%. On human V2 receptor, the “hV2 efficacy (%)” value is 112%.

As to `CCC[C@H](NC(=O)[C@@H]1CCCN1C(=O)[C@@H]1CNC(=O)CCC(=O)N[C@@H](Cc2ccc(O)cc2)C(=O)N[C@@H]([C@@H](C)CC)C(=O)N[C@@H](CCC(N)=O)C(=O)N[C@@H](CC(N)=O)C(=O)N1)C(=O)NCC(N)=O` [Example 17] (YIQN[Dap]P[Nva]G-NH2; linker N-5 via Suc), in experiment [1], the EC50 was 0.6 nM and the Emax was 114%. Besides, the EC50 at human V1a receptor worked out at 351 nM. Further, at human V2 receptor, the EC50 came out at 116 nM and the “hV2 efficacy (%)” value is 116/116%.

Turning to `CC[C@H](C)[C@@H]1NC(=O)[C@H](Cc2ccc(O)cc2)NC(=O)CCC(=O)NC[C@@H](C(=O)N(C)CC(=O)N[C@@H](CC2CCCCC2)C(=O)NCC(N)=O)NC(=O)[C@H](CC(N)=O)NC(=O)[C@H](CCC(N)=O)NC1=O` [Example 31] (YIQN[Dap][Sar][Cha]G-NH2; linker N-5 via Suc), in experiment [1], the EC50 was 0.5 nM and the Emax is 107%. Besides, the concentration giving a half-maximal response (EC50) on human V1a receptor was above 27000 nM. Moreover, on human V2 receptor, the EC50 stood at 199 nM and the “hV2 efficacy (%)” value is on record as 126%.

Take `CC[C@H](C)[C@@H]1NC(=O)[C@H](Cc2ccc(O)cc2)NC(=O)CCC(=O)NC[C@@H](C(=O)N(C)CC(=O)N[C@H](C(=O)NCC(N)=O)c2ccccc2)NC(=O)[C@H](CC(N)=O)NC(=O)[C@H](CCC(N)=O)NC1=O` [Example 37] (YIQN[Dap][Sar][Phg]G-NH2; linker N-5 via Suc): the EC50 is 0.2 nM in experiment [1], above 27000 nM on human V1a receptor and 53 nM at human V2 receptor. The Emax in experiment [1] is 112%. Moreover, the “hV2 efficacy (%)” value at human V2 receptor was found to be 121%.

For `CC[C@H](C)[C@@H]1NC(=O)[C@H](Cc2ccc(O)cc2)NC(=O)CCC(=O)NC[C@@H](C(=O)N(CC(=O)N[C@@H](CC(C)C)C(=O)NCC(N)=O)C2CC2)NC(=O)[C@H](CC(N)=O)NC(=O)[C@H](CCC(N)=O)NC1=O` [Example 38] (YIQN[Dap][NcPrGly]LG-NH2; linker N-5 via Suc), the EC50 in experiment [1] was 0.38 nM; on human V1a receptor, above 27000 nM; on human V2 receptor it was 626 nM. In addition, the Emax in experiment [1] was 126%. Moreover, the “hV2 efficacy (%)” value at human V2 receptor turned out to be 146%.

Consider `CC[C@H](C)[C@@H]1NC(=O)[C@H](Cc2ccc(O)cc2)NC(=O)CCC(=O)NC[C@@H](C(=O)N(C)CC(=O)N[C@@H](CCC(C)C)C(=O)NCC(N)=O)NC(=O)[C@H](CC(N)=O)NC(=O)[C@H](CCC(N)=O)NC1=O` [Example 25] (YIQN[Dap][Sar][hLeu]G-NH2; linker N-5 via Suc), for which the EC50 was 0.8 nM in experiment [1], above 27000 nM on human V1a receptor and 213 nM on human V2 receptor. Besides, the Emax in experiment [1] amounted to 103%. In addition, the “hV2 efficacy (%)” value on human V2 receptor came out at 118%.

For `CC[C@H](C)[C@@H]1NC(=O)[C@H](Cc2ccc(O)cc2)NC(=O)CCC(=O)NC[C@@H](C(=O)N2CCC[C@H]2C(=O)N[C@@H](CCC(C)C)C(=O)NCC(N)=O)NC(=O)[C@H](CC(N)=O)NC(=O)[C@H](CCC(N)=O)NC1=O` [Example 22] (YIQN[Dap]P[hLeu]G-NH2; linker N-5 via Suc), in experiment [1], the EC50 is 0.8 nM and the Emax worked out at 109%. For the same compound, on human V1a receptor, the EC50 amounted to 391 nM. Further, at human V2 receptor, the EC50 was found to be 176 nM and the “hV2 efficacy (%)” value is listed as 106%.

For the compound `CC[C@H](C)[C@@H]1NC(=O)[C@H](Cc2ccc(O)cc2)NC(=O)CCC(=O)NC[C@@H](C(=O)N(C)CC(=O)N[C@@H](C(=O)NCC(N)=O)[C@H](C)O)NC(=O)[C@H](CC(N)=O)NC(=O)[C@H](CCC(N)=O)NC1=O` [Example 29] (YIQN[Dap][Sar][dT]G-NH2; linker N-5 via Suc), the EC50 in experiment [1] is 0.6 nM; at human V1a receptor, above 27000 nM; on human V2 receptor it was 2070 nM. The Emax in experiment [1] amounted to 109%; on human V2 receptor, 113%.

As for `CC[C@@H](C)[C@@H](NC(=O)CN(C)C(=O)[C@@H]1CNC(=O)CCC(=O)N[C@@H](Cc2ccc(O)cc2)C(=O)N[C@@H]([C@@H](C)CC)C(=O)N[C@@H](CCC(N)=O)C(=O)N[C@@H](CC(N)=O)C(=O)N1)C(=O)NCC(N)=O` [Example 28] (YIQN[Dap][Sar][dI]G-NH2; linker N-5 via Suc), the EC50 is 0.5 nM in experiment [1], above 27000 nM on human V1a receptor and 1380 nM on human V2 receptor. Moreover, the results for the Emax (in experiment [1]; on human V2 receptor) were 109% and 119%, respectively.

For the compound `CC[C@H](C)[C@@H]1NC(=O)[C@H](Cc2ccc(O)cc2)NC(=O)CCC(=O)NC[C@@H](C(=O)N(C)CC(=O)N[C@H](C(=O)NCC(N)=O)C2CCCCC2)NC(=O)[C@H](CC(N)=O)NC(=O)[C@H](CCC(N)=O)NC1=O` [Example 24] (YIQN[Dap][Sar][Chg]G-NH2; linker N-5 via Suc), in experiment [1], the EC50 came to 0.5 nM and the Emax was determined as 104%. On human V1a receptor, the EC50 is above 27000 nM. At human V2 receptor, the EC50 was 152 nM and the “hV2 efficacy (%)” value is given as 120%.

For the compound `CCC[C@H](NC(=O)CN(C)C(=O)[C@@H]1CNC(=O)CCC(=O)N[C@@H](Cc2ccc(O)cc2)C(=O)N[C@@H]([C@@H](C)CC)C(=O)N[C@@H](CCC(N)=O)C(=O)N[C@@H](CC(N)=O)C(=O)N1)C(=O)NCC(N)=O` [Example 27] (YIQN[Dap][Sar][Nva]G-NH2; linker N-5 via Suc), the EC50 was 0.8 nM in experiment [1], above 27000 nM at human V1a receptor and 282 nM on human V2 receptor. The Emax in experiment [1] was found to be 107%. For the same compound, on human V2 receptor, the “hV2 efficacy (%)” value was 114%.

Take `CC[C@H](C)[C@@H]1NC(=O)[C@H](Cc2ccc(O)cc2)NC(=O)CCC(=O)NC[C@@H](C(=O)N2CCC[C@H]2C(=O)N[C@@H](CC(C)C)C(=O)NCC(N)=O)NC(=O)[C@H](CC(N)=O)NC(=O)[C@H](CCC(N)=O)NC1=O` [Example 1] (YIQN[Dap]PLG-NH2; linker N-5 via Suc (inferred); C-terminus assumed): the EC50 in experiment [1] came out at 1 nM; on human V1a receptor, 5120 nM; on human V2 receptor it was 216 nM. In addition, the “hOT efficacy (%)” value in experiment [1] came out at 105%. Moreover, the “hV2 efficacy (%)” value on human V2 receptor is recorded as 130%.
